Like-named read-outs stand apart in the source and are kept apart here.
What was measured:
Environmental stability = format: physicochemical
[1] = system: B-cell non-Hodgkin lymphoma; test: Single agent clinical study in B-cell non-Hodgkin lymphoma; format: in vivo
Description: As of Sep. […] See U.S. patent application Ser. No. 13/661,678 and International Patent Application No. PCT/US2012/062133, both filed on Oct. 26, 2012, each of which is hereby incorporated by reference in its entirety. […] Studies are ongoing and additional dose levels currently being investigated include: 1000 mg QD, 1250 mg QD, 375 mg BID and 500 mg BID.

Solubility = format: physicochemical

| SMILES | environmental instabilities (heat, acid, base) (Environmental stability) | evaluable B-NHL patients with decreased lymph node size ([1]; monotherapy) | patients with B-cell non-Hodgkin lymphoma who experienced stable disease ([1]; monotherapy, as of Sep. 11, 2012) | solubility (Solubility; ethanol, organic solvent or mixture, read-out: solubility in ethanol) [µg/mL] | solubility (Solubility; water, read-out: solubility in water) [µg/mL] | maximum tolerated dose (MTD) ([1]; single agent, up to 750 mg PO QD) |
| --- | --- | --- | --- | --- | --- | --- |
| C=CC(=O)Nc1cccc(Nc2nc(Nc3ccc(OCCOC)cc3)ncc2F)c1.O=S(=O)(O)c1ccccc1 [Compound 1 besylate, N-(3-(5-fluoro-2-(4-(2-methoxyethoxyl)phenylamino)pyrimidin-4-ylamino)phenyl)acrylamide besylate] | no environmental instabilities | Six of eleven | 9 out of 17 | ~10000 | ~160 |  |
| C=CC(=O)Nc1cccc(Nc2nc(Nc3ccc(OCCOC)cc3)ncc2F)c1 [Compound 1, N-(3-(5-fluoro-2-(4-(2-methoxyethoxyl)phenylamino)pyrimidin-4-ylamino)phenyl)acrylamide] |  |  |  |  |  | has not yet been reached |
